# Assay: Body weight of rats on treatment in MIA osteoarthritis study
# Format: in vivo, Sprague Dawley rats
# Conditions: oral, positive control; treatment stopped early in the study
# Description: Groups of 20 male Sprague Dawley rats were given a 2 mg intra-articular injection of MIA into the right knee on day 0. On day 18, rats were treated with a single dose of plasmalyte buffer (negative control), PLCs, PLC lysate, or human PRP by intra-articular injection into the right knee.
compound,measurement,value
C[C@@H]1C[C@H]2[C@@H]3CCC4=CC(=O)C=C[C@]4(C)[C@@]3(F)[C@@H](O)C[C@]2(C)[C@@]1(O)C(=O)CO [dexamethasone],body weight on treatment,began to lose weight

# Source: patent US20230174939A1, “NOVEL ANUCLEATED CELLS AS A SOURCE FOR TREATMENT OF PLATELET RICH PLASMA DEPENDENT DISORDERS” (Stellular Bio, Inc., priority 2020, published 2023)
